Experimental data from PMC12006171, “Marsupial cathelicidins: characterization, antimicrobial activity and evolution in this unique mammalian lineage” (Frontiers in Immunology, 2025).
In brackets after ≈: the same amount, converted by molar mass. Read-outs that look alike come from different tables or passages of the source. Where a SMILES comes first, the peptide text is derived from it.

What was measured:
Format in all cases: cell-based
[1] = system: Escherichia coli ATCC 25922; experiment: microbe, parasite or virus in culture
In short: (§1)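 Bacteria at a final 5 x 10^5 CFU/mL were incubated 20–24 h at 35 °C with DMSO-solubilized peptides serially diluted to 64–0.125 μg/mL in Mueller Hinton broth (± lysed horse blood, ± divalent cations). MIC read as no visible growth; bactericidal action from colony counts compared with the inoculum.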

[2] = system: Escherichia coli clinical isolate - animal; experiment: microbe, parasite or virus in culture; conditions: clinical isolate; for MIC in the presence of cations E. coli: superscript value, cation-adjusted Mueller Hinton broth
In short: as §1

[3] = system: Pseudomonas aeruginosa ATCC 27853; experiment: microbe, parasite or virus in culture
In short: as §1

[4] = system: Pseudomonas aeruginosa clinical isolate - animal; experiment: microbe, parasite or virus in culture; conditions: clinical isolate, µM equivalent of Table 3
In short: as §1

[5] = system: Staphylococcus aureus ATCC 29213; experiment: microbe, parasite or virus in culture; conditions: µM equivalent of Table 3
In short: as §1

[6] = system: Staphylococcus aureus clinical isolate - animal; experiment: microbe, parasite or virus in culture; conditions: clinical isolate
In short: as §1

[7] = system: Candida albicans Clinical isolate - human; experiment: microbe, parasite or virus in culture; conditions: clinical isolate; µM version of Table 4; read-out: MIC C. albicans
In short: (§2)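 MIC defined as lowest peptide level preventing visible growth after 20–24 h at 35°C. Candida tested in RPMI-1640 MOPS; bacteria in Mueller Hinton broth, optionally with 10% lysed horse blood and/or divalent cations. Final peptide range 64-0.125 μg/mL, starting inoculum 5 x 10^5 CFU/mL, per CLSI M07-A/M26A.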

[8] = system: Candida krusei ATCC 6258; experiment: microbe, parasite or virus in culture; conditions: µM version of Table 4
In short: as §2

[9] = system: Candida parapsilosis ATCC 22019; experiment: microbe, parasite or virus in culture; conditions: µM version of Table 4
In short: as §2

[10] = system: Streptococcus agalactiae ATCC 12386; experiment: microbe, parasite or virus in culture; conditions: µM equivalent of Table 3
In short: as §2

[11] = system: Streptococcus agalactiae Clinical isolate - animal; experiment: microbe, parasite or virus in culture; conditions: clinical isolate, µM equivalent of Table 3
In short: as §2

[12] = system: Streptococcus pneumoniae ATCC 49619; experiment: microbe, parasite or virus in culture; conditions: µM equivalent of Table 3
In short: as §2

[13] = system: Staphylococcus aureus clinical isolate – animal, methicillin-resistant (MRSA); conditions: µM equivalent of Table 3
Description: (§3) Antimicrobial testing of 78 cathelicidin MPs was performed in two phases as outlined in Figure 1 . In phase I, 40 peptides (27 extant and 13 ancestral) were selected for testing based on rank (outlined above) and similarity to published marsupial cathelicidins with known antimicrobial activity ([33], [41]–[43]). These peptides were tested against nine bacteria (Staphylococcus aureus ATCC 29213 and clinical isolate, Escherichia coli ATCC 25922 and clinical isolate, Pseudomonas aeruginosa ATCC 27853 and clinical isolate, Streptococcus agalactiae ATCC 12386 and clinical isolate, Streptococcus pneumoniae ATCC 49619) and three fungi (Candida krusei ATCC 6258, Candida parapsilosis ATCC 22019, and Candida albicans clinical isolate). Details regarding these strains are available in Supplementary Table 4 . The antimicrobial activity of cathelicidins was determined as the minimum inhibitory concentration (MIC), which was the lowest concentration of cathelicidin that prevented visible bacterial or fungal growth, relative to the negative control. […] Minimum bactericidal concentration (MBC) and/or minimum fungicidal concentration (MFC) was conducted to determine microbicidal versus static action. Activity against S. aureus ATCC, E. coli ATCC, and Pseudomonas aeruginosa ATCC 27853 was examined in the presence of divalent cations to determine the impact of inhibitors.
(§4) Antimicrobial activity was determined using a broth microdilution susceptibility assay in 96 well polypropylene plates according to Clinical Laboratory Standards Institute guidelines M07-A and M26A as described previously ([33], [42], [43]). The bacterial and fungal isolates from humans and animals used in this study are outlined in Supplementary Table 4 . Only yeasts were included in the panel of fungi as they have been used in the susceptibility testing of eutherian ([3], [81]–[83]) and other marsupial cathelicidins previously ([33], [42], [43]). Cathelicidin mature peptides were solubilized in DMSO and serially diluted in duplicate from 128-0.25μg/mL in a final volume of 100µL. For bacteria, cathelicidins were diluted in Mueller Hinton Broth (MHB) with or without 10% lysed horse blood, and with (MH II B) or without (MHB) calcium and magnesium cations. For fungi, cathelicidins were diluted in Roswell Park Memorial Institute medium (RPMI)-1640 MOPS. Ampicillin or tetracycline were included as a positive control for Gram-positive and -negative bacteria respectively, while amphotericin B was used for fungi. A media-only negative control and growth control (no cathelicidin) were also included on each plate. Bacteria were sub-cultured on Muller Hinton agar (MHA) or sheep blood agar (BA), and fungi on Sabouraud dextrose agar (SAB), 20–24 hours prior to the test. Colonies were suspended in saline, the concentration adjusted to a 0.5 McFarland standard, and then diluted in media to a concentration of 1.0 x 10^6 cells/mL. Then, 100μL was added to each well of the cathelicidin dilution plate, giving a final inoculum density of 5 x 10^5 CFU/mL and cathelicidin concentration of 64-0.125μg/mL. Colony counts were performed on MHA/BA/SAB to confirm inoculum density. All plates were incubated at 35°C for 20–24 hours, depending on the strain.
(§5) Colonies were counted and compared to the colony count of the starting inoculum.

[14] = system: Staphylococcus aureus clinical isolate – animal, penicillin-resistant (PRSA); conditions: µM equivalent of Table 3
Description: as §3, §4, §5

[15] = superscript value, cation-adjusted Mueller Hinton broth, µM equivalent
[16] = value in brackets, µM equivalent of Table 3

CC[C@H](C)[C@H](NC(=O)[C@H](CCCCN)NC(=O)[C@H](Cc1ccccc1)NC(=O)[C@H](CC(N)=O)NC(=O)[C@H](CCCCN)NC(=O)[C@H](CC(C)C)NC(=O)[C@H](CCCNC(=N)N)NC(=O)[C@H](CCCCN)NC(=O)[C@H](CCCCN)NC(=O)[C@@H](NC(=O)[C@H](CO)NC(=O)[C@H](CC(=O)O)NC(=O)CNC(=O)[C@H](Cc1ccccc1)NC(=O)[C@H](CCCCN)NC(=O)[C@H](CCCCN)NC(=O)[C@H](CC(C)C)NC(=O)[C@H](CCCCN)NC(=O)[C@H](CCCCN)NC(=O)[C@H](CCCCN)NC(=O)[C@H](CC(C)C)NC(=O)[C@H](CO)NC(=O)[C@H](CCCCN)NC(=O)[C@H](Cc1c[nH]c2ccccc12)NC(=O)[C@H](CC(C)C)NC(=O)CNC(=O)[C@H](CCCNC(=N)N)NC(=O)[C@@H](N)CCCCN)[C@@H](C)CC)C(=O)NCC(=O)N[C@@H](Cc1ccccc1)C(=O)N1CCC[C@H]1C(=O)N[C@H](C(=O)N1CCC[C@H]1C(=O)N[C@@H](CC(C)C)C(=O)O)[C@@H](C)CC [MAP14] (H-KRGLWKSLKKKLKKFGDSIKKRLKNFKIGFPIPL-OH)
MIC in the presence of cations E. coli ATCC [1, 15]: 1.9 (1.9)^1.9 µM
MBC E. coli ATCC [1, 16]: 1.9 (1.9)^1.9 µM
MIC E. coli ATCC ([1]; µM equivalent of Table 3): 1.9 (1.9)^1.9 µM
MIC in the presence of cations E. coli [2]: 4 µg/mL
MIC in the presence of cations E. coli ([2]; µM equivalent): 0.9 µM
MBC E. coli [2, 16]: 1.9 µM
MIC ([2]; µM equivalent of Table 3): 1.9 µM
MIC ([3]; superscript value, cation-adjusted Mueller Hinton broth, µM equivalent, read-out: MIC in the presence of cations P. aeruginosa ATCC): 1.9 µM
MBC P. aeruginosa ATCC [3, 16]: 3.9 µM
MIC ([3]; µM equivalent of Table 3, read-out: MIC P. aeruginosa ATCC): 3.9 µM
MBC P. aeruginosa ([4]; value in brackets): 3.9 (3.9)^3.9 µM
MIC P. aeruginosa [4]: 3.9 (3.9)^3.9 µM
MIC in the presence of cations S. aureus ATCC ([5]; superscript value, cation-adjusted Mueller Hinton broth): 7.9 (7.9)^7.9 µM
MBC S. aureus ATCC ([5]; value in brackets): 7.9 (7.9)^7.9 µM
MIC S. aureus ATCC [5]: 7.9 (7.9)^7.9 µM
MIC in the presence of cations S. aureus [6, 15]: 7.9 (7.9)^7.9 µM
MBC S. aureus [6, 16]: 7.9 (7.9)^7.9 µM
MIC S. aureus ([6]; µM equivalent of Table 3): 7.9 (7.9)^7.9 µM
MIC [7]: >15.8 µM
MFC C. krusei ATCC ([8]; value in brackets): > 15.8 µM
MIC C. krusei ATCC [8]: 15.8 µM (≈ 63.9 µg/mL)
MFC C. parapsilosis ATCC ([9]; value in brackets): 7.9 µM (≈ 31.9 µg/mL)
MIC ([9]; read-out: MIC C. parapsilosis ATCC): 3.9 µM (≈ 15.8 µg/mL)
MBC S. agalactiae ATCC ([10]; value in brackets): 15.8 µM
MIC S. agalactiae ATCC [10]: 15.8 µM
MBC S. agalactiae ([11]; value in brackets): 7.9 µM
MIC S. agalactiae [11]: 7.9 µM
MBC S. pneumoniae ATCC ([12]; value in brackets): 7.9 µM
MIC S. pneumoniae ATCC [12]: 7.9 µM
MBC MRSA ([13]; value in brackets): 15.8 µM
MIC MRSA [13]: 15.8 µM
MBC PRSA ([14]; value in brackets): 3.9 µM
MIC PRSA [14]: 3.9 µM
